# Measured values published in US10072011B2, “Substituted bridged urea analogs as sirtuin modulators” (GlaxoSmithKline Intellectual Property (No.2) Limited, priority 2014, dated 2018).
# Target: T1, SIRT1 (Homo sapiens, UniProt Q96EB6)
# T1 sequence (Q96EB6 1-747): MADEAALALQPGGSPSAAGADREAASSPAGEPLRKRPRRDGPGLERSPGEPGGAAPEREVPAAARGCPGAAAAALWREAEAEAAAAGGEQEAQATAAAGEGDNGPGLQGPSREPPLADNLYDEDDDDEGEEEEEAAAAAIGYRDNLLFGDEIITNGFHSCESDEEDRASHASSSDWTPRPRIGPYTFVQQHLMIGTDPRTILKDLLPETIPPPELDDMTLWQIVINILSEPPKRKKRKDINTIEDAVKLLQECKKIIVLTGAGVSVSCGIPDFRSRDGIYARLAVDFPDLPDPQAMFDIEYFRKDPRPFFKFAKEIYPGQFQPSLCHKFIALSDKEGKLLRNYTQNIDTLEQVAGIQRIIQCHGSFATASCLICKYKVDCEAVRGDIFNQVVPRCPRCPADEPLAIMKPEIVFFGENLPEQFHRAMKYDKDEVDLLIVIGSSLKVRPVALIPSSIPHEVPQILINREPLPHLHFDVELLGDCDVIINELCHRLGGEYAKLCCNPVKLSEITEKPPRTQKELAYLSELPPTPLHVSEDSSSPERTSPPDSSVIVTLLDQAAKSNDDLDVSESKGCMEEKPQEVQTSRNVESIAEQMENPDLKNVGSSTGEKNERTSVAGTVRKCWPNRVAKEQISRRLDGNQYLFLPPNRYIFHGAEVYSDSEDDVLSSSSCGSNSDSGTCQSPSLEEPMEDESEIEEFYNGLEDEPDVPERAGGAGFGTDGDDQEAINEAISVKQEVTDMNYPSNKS
# Experiment: Trp mass spectrometry assay of SIRT1 activation (Ac-R-H-K-K(Ac)-W-NH2 peptide)
# Type: biochemical
# Conditions: Trp peptide 0.5 μM, 120 μM βNAD+, 10 nM SIRT1, 25 min at 25° C.; for TRP MAX RESP (percent maximum fold activation) / Emax: relative to control (100%); for Emax: 25 min, read-out: TRP MAX RESP (percent maximum fold activation)
# Outline: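 N-terminal His-tagged human SIRT1, expressed in BL21(DE3) and purified, was incubated 25 min with an acetylated Trp peptide and NAD plus test compound at varying concentrations, then quenched with formic acid. OAADPR or deacetylated peptide was quantified by mass spectrometry versus compound-free control; EC1.5 is the concentration giving 50% activity increase, with percent maximum activation.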
SMILES,"TRP Activity (EC1.5, concentration of test compound that results in 150% activation of SIRT1)",TRP MAX RESP (percent maximum fold activation),Emax [%]
"O=C(NCC(F)(F)F)c1ccc2c(n1)N(C(=O)Nc1ccc(F)cn1)[C@H]1CCN2C1 [Example 70, (4S)—N5-(5-fluoropyridin-2-yl)-N7-(2,2,2-trifluoroethyl)-3,4-dihydro-1,4-methanopyrido[2,3-b][1,4]diazepine-5,7(2H)-dicarboxamide]",A (EC1.5<1 μM),,> 150
"Cc1ccc2c(NC(=O)N3c4nc(C(=O)N[C@H](CO)C(F)(F)F)ccc4N4CC[C@H]3C4)n[nH]c2n1 [Example 139, (4S)—N5-(6-methyl-1H-pyrazolo[3,4-b]pyridin-3-yl)-N7-((R)-1,1,1-trifluoro-3-hydroxypropan-2-yl)-3,4-dihydro-1,4-methanopyrido[2,3-b][1,4]diazepine-5,7(2H)-dicarboxamide]",A (EC1.5<1 μM),,> 150
"CCC(NC(=O)c1ccc2c(n1)N(C(=O)Nc1ccccn1)[C@H]1CCN2C1)C(F)(F)F (stereo in doubt) [Example 61, (4S)—N5-(pyridin-2-yl)-N7-((S)-1,1,1-trifluorobutan-2-yl)-3,4-dihydro-1,4-methanopyrido[2,3-b][1,4]diazepine-5,7(2H)-dicarboxamide]",A (EC1.5<1 μM),,> 150
"COCC(O)CNC(=O)c1ccc2c(n1)N(C(=O)Nc1ccccn1)[C@H]1CCN2C1 (single isomer, unassigned) [Example 214]",B (EC1.5 1-25 μM),,> 150
"CC(C#N)NC(=O)c1ccc2c(n1)N(C(=O)Nc1ccccn1)[C@H]1CCN2C1 (single isomer, unassigned) [Example 102]",A (EC1.5<1 μM),,> 150
"O=C(NC1CC1(F)F)c1ccc2c(n1)N(C(=O)Nc1ccccn1)[C@H]1CCN2C1 (single isomer, unassigned) [Example 44]",A (EC1.5<1 μM),,
"Cc1ccc2c(NC(=O)N3c4nc(C(=O)N[C@H](C)C(F)(F)F)ccc4N4CC[C@H]3C4)n[nH]c2n1 [Example 76, (4S)—N5-(6-methyl-1H-pyrazolo[3,4-b]pyridin-3-yl)-N7-((R)-1,1,1-trifluoropropan-2-yl)-3,4-dihydro-1,4-methanopyrido[2,3-b][1,4]diazepine-5,7(2H)-dicarboxamide]",A (EC1.5<1 μM),,> 150
"C[C@@H](NC(=O)c1ccc2c(n1)N(C(=O)Nc1cc(C(=O)NN)ccn1)[C@H]1CCN2C1)C(F)(F)F [Example 152, (4S)—N5-(4-(hydrazinecarbonyl)pyridin-2-yl)-N7-((R)-1,1,1-trifluoropropan-2-yl)-3,4-dihydro-1,4-methanopyrido[2,3-b][1,4]diazepine-5,7(2H)-dicarboxamide]",A (EC1.5<1 μM),,> 150
"O=C(NC1CC1(F)F)c1ccc2c(n1)N(C(=O)Nc1ccccn1)[C@H]1CCN2C1 (single isomer, unassigned) [Example 43]",A (EC1.5<1 μM),,> 150
"Cc1nc(NC(=O)N2c3nc(C(=O)N[C@H](C)C(F)(F)F)ccc3N3CC[C@H]2C3)co1 [Example 25, (4S)—N5-(2-methyloxazol-4-yl)-N7-((R)-1,1,1-trifluoropropan-2-yl)-3,4-dihydro-1,4-methanopyrido[2,3-b][1,4]diazepine-5,7(2H)-dicarboxamide]",A (EC1.5<1 μM),,> 150
"CCCNC(=O)c1ccc2c(n1)N(C(=O)Nc1ccccn1)[C@H]1CCN2C1 [Example 40, (4S)—N7-propyl-N5-(pyridin-2-yl)-3,4-dihydro-1,4-methanopyrido[2,3-b][1,4]diazepine-5,7(2H)-dicarboxamide]",A (EC1.5<1 μM),,> 150
"C[C@@H](NC(=O)c1ccc2c(n1)N(C(=O)Nc1ccc(OC[C@H](O)CO)cn1)[C@H]1CCN2C1)C(F)(F)F [Example 149, (4S)—N5-(5-((R)-2,3-dihydroxypropoxy)pyridin-2-yl)-N7-((R)-1,1,1-trifluoropropan-2-yl)-3,4-dihydro-1,4-methanopyrido[2,3-b][1,4]diazepine-5,7(2H)-dicarboxamide]",A (EC1.5<1 μM),,> 150

# Second part, the compound after the results:
"TRP Activity (EC1.5, concentration of test compound that results in 150% activation of SIRT1)",TRP MAX RESP (percent maximum fold activation),Emax [%],SMILES
B (EC1.5 1-25 μM),A (Fold activation≥150%),,"O=C(NC1CC1(F)F)c1ccc2c(n1)N(C(=O)Nc1cc(OCCO)ccn1)[C@H]1CCN2C1 (single isomer, unassigned) [Example 263]"
A (EC1.5<1 μM),,> 150,"C[C@@H](NC(=O)c1ccc2c(n1)N(C(=O)Nc1ccc(OC[C@@H](O)CO)nn1)[C@H]1CCN2C1)C(F)(F)F [Example 234, (4S)—N5-(6-((S)-2,3-dihydroxypropoxy)pyridazin-3-yl)-N7-((R)-1,1,1-trifluoropropan-2-yl)-3,4-dihydro-1,4-methanopyrido[2,3-b][1,4]diazepine-5,7(2H)-dicarboxamide]"
A (EC1.5<1 μM),,< 150,"Cc1ncc(-c2cc(NC(=O)N3c4nc(C(=O)N[C@H](C)C(F)(F)F)ccc4N4CC[C@H]3C4)ncn2)o1 [Example 318, (4S)—N5-(6-(2-methyloxazol-5-yl)pyrimidin-4-yl)-N7-((R)-1,1,1-trifluoropropan-2-yl)-3,4-dihydro-1,4-methanopyrido[2,3-b][1,4]diazepine-5,7(2H)-dicarboxamide]"
B (EC1.5 1-25 μM),B (Fold Activation<150%),,"C=CCNC(=O)c1ccc2c(n1)N(C(=O)Nc1cc(OC[C@H](O)CO)ccn1)[C@H]1CCN2C1 [Example 315, (4S)—N7-allyl-N5-(4-((R)-2,3-dihydroxypropoxy)pyridin-2-yl)-3,4-dihydro-1,4-methanopyrido[2,3-b][1,4]diazepine-5,7(2H)-dicarboxamide]"
A (EC1.5<1 μM),,< 150,"C[C@@H](NC(=O)c1ccc2c(n1)N(C(=O)Nc1cc(-c3cnc(C4CC4)s3)ccn1)[C@H]1CCN2C1)C(F)(F)F [Example 325, (4S)—N5-(4-(2-cyclopropylthiazol-5-yl)pyridin-2-yl)-N7-((R)-1,1,1-trifluoropropan-2-yl)-3,4-dihydro-1,4-methanopyrido[2,3-b][1,4]diazepine-5,7(2H)-dicarboxamide]"
B (EC1.5 1-25 μM),,> 150,"C[C@@H](NC(=O)c1ccc2c(n1)N(C(=O)Nc1cc(OCCN(C)C)ccn1)[C@H]1CCN2C1)C(F)(F)F [Example 268, (4S)—N5-(4-(2-(dimethylamino)ethoxy)pyridin-2-yl)-N7-((R)-1,1,1-trifluoropropan-2-yl)-3,4-dihydro-1,4-methanopyrido[2,3-b][1,4]diazepine-5,7(2H)-dicarboxamide]"
